Results as given in US20240262783A1, “PHARMACEUTICAL SALT OF FINGOLIMOD, PREPARATION METHOD, PHARMACEUTICAL COMPOSITION AND USE THEREOF” (SHANGHAI BOCIMED PHARMACEUTICAL CO., LTD., priority 2021, published 2024).
In brackets after ≈: the same amount, converted by molar mass. Where a name gives a salt, the structure may show the parent alone. Read-outs that look alike come from different tables or passages of the source.

What was measured:
[1] = Comparison of solubility (shaken at 37° C. for 24 h, HPLC); assay type: physicochemical; details: for Solubility: 24 h; for solubility at 24 h: 37 °C, thermodynamic from solid
Experimental: The crystalline form 1 of Fingolimod 1-hydroxy-2-naphthoate prepared in Example 14, the crystalline form B of Fingolimod embonate prepared in Example 2, Fingolimod hydrochloride and the Fingolimod free base prepared in Example 12 were added to corresponding media described below. The mixtures were shaken at 37° C. for 24 h and filtered through 0.45 μm aqueous-phase filter membranes. The filtrates were collected for determination of solubility by high-performance liquid chromatography. The corresponding media were acetate buffer solutions at pH 3 and pH 5 and phosphate buffer solutions at pH 7 and pH 9, and the water was ultrapure water.

[2] = Comparison of solid state stability (related substances by HPLC); assay type: physicochemical; details: for Solid state stability, total related substances (in words): stood in high temperature, high humidity, accelerated, illumination and long-term conditions for 10 d
Experimental: Method for Detecting Related Substances by HPLC [table] The crystalline form 1 of Fingolimod 1-hydroxy-2-naphthoate prepared in Example 14, the crystalline form A of Fingolimod embonate prepared in Example 3, and Fingolimod hydrochloride were stood in a high temperature (60° C.)condition, a high humidity (25° C./90% RH) condition, an accelerated (40° C./75% RH) condition, an illumination (1.2× 10^6 Lux·hr) condition, and a long-term (25° C./60% RH) condition, and samples were taken on day 0, day 5, and day 10 for related substance detection by HPLC.

[3] = male, SD, rat, in vivo, po, 0.1 mg/kg
Experimental: (§1) Six male SD rats were divided into two groups. […] In the whole study, the animals in the intramuscular injection group were given ad libitum access to food and water, and those in the oral group were fasted overnight before administration and given access to food at 4 h post-dose.
(§2) Collection of plasma sample: about 150 μL of blood was collected from the jugular vein (whole blood was centrifuged within 30 min to isolate plasma) and placed in a tube containing anticoagulant EDTA-K2, and after treatment, plasma was stored in a freezer at −70° C. before use.
(§3) Pretreatment of plasma sample: to 30 μL of plasma sample, 200 μL of internal standard solution (40 ng/mL Glipizide acetonitrile solution) was added; the mixture was vortexed for 1 min and centrifuged at 5800 rpm at 4° C. for 10 min; 100 μL of supernatant was transferred to a new plate 5 μL of the solution was taken for LC-MS/MS.

in vivo = details: male, SD, rat, po, 0.1 mg/kg
Experimental: as §1, §2, §3

[4] = Pharmacokinetic study in male SD rats (plasma Fingolimod by LC-MS/MS)
Experimental: as §1, §2, §3

[5] = Accelerated (40° C./75% RH), Day 5
[6] = Accelerated (40° C./75% RH), Day 10
[7] = Day 0 (baseline, all conditions)
[8] = High humidity (25° C./90% RH), Day 5
[9] = High humidity (25° C./90% RH), Day 10
[10] = High temperature (60° C.), Day 5
[11] = High temperature (60° C.), Day 10
[12] = Illumination (1.2× 10^6 Lux·hr), Day 5
[13] = Illumination (1.2× 10^6 Lux·hr), Day 10
[14] = Long-term (25° C./60% RH), Day 5
[15] = Long-term (25° C./60% RH), Day 10
[16] = injection group, intramuscular 3 mg/kg

| Solubility ([1]; Water (ultrapure), 37° C.) | Solubility ([1]; pH 3 acetate buffer, 37° C.) [µg/mL] | Solubility ([1]; pH 5 acetate buffer, 37° C.) [µg/mL] | Changes in total related substances relative to day 0 [2, 5] [%] | Changes in total related substances relative to day 0 [2, 6] [%] | Changes in total related substances relative to day 0 [2, 7] [%] | Changes in total related substances relative to day 0 [2, 8] [%] | Changes in total related substances relative to day 0 [2, 9] [%] | Changes in total related substances relative to day 0 [2, 10] [%] | Changes in total related substances relative to day 0 [2, 11] [%] | Changes in total related substances relative to day 0 [2, 12] [%] | Changes in total related substances relative to day 0 [2, 13] [%] | Changes in total related substances relative to day 0 [2, 14] [%] | Changes in total related substances relative to day 0 [2, 15] [%] | Solubility ([1]; pH 7 phosphate buffer, 37° C.) [µg/mL] | Solubility ([1]; pH 9 phosphate buffer, 37° C.) [µg/mL] | Molecule | Solid state stability, total related substances (in words) [2] | further results |
| --- | --- | --- | --- | --- | --- | --- | --- | --- | --- | --- | --- | --- | --- | --- | --- | --- | --- | --- |
| about 23 μg/mL | 5561.36 (≈ 18.1 mM) | 473.53 (≈ 1.54 mM) |  |  |  |  |  |  |  |  |  |  |  |  |  | CCCCCCCCc1ccc(CCC(N)(CO)CO)cc1 [Fingolimod free base, reference compound] |  |  |
|  |  |  | −0.07 | 0.01 | 0 | −0.07 | −0.07 | 0.03 | 0.02 | −0.04 | −0.03 | 0.04 | −0.12 |  |  | CCCCCCCCc1ccc(CCC(N)(CO)CO)cc1 [Fingolimod hydrochloride, reference compound] |  | Behaviour of the salt in the media (in words) [1]: dissociated into the Fingolimod free base; solubility at 24 h ([1]; pH 3, aqueous buffer): > 33500 µg/mL; solubility at 24 h ([1]; pH 5, aqueous buffer): > 15600 µg/mL; solubility at 24 h ([1]; pH 7, aqueous buffer): < 0.15 µg/mL; solubility at 24 h ([1]; pH 9, aqueous buffer): < 0.15 µg/mL; solubility at 24 h ([1]; water): ~14000 µg/mL; Solubility [1]: >13900 µg/mL |
|  |  |  |  |  |  |  |  |  |  |  |  |  |  |  |  | CCCCCCCCc1ccc(CCC(N)(CO)CO)cc1 [Fingolimod] |  | Time post-dose at which plasma concentration reached the peak value [3]: 12 h; MRT (in vivo): 12 h |
| 5.46 µg/mL | 20.07 | 9.17 | −0.09 | −0.07 | 0 | −0.04 | −0.07 | −0.05 | −0.16 | −0.05 | 0.02 | −0.17 | −0.15 | 0.54 | 0.58 | Fingolimod 1-hydroxy-2-naphthoate | remained substantially unchanged | Solubility in water relative to the solubility of Fingolimod free base ([1]; water): one fourth to one fifth; Solubility in water relative to the solubility of Fingolimod hydrochloride ([1]; water): one thousandth to one twenty-six hundredth; Cmax relative to dose (in words) ([4]; injection group 3 mg/kg versus oral group 0.1 mg/kg): did not increase in proportion to the dose; MRT [4, 16]: 288 h; Time for plasma concentration to reach a relatively steady state [4, 16]: ≤ 1 days; Time plasma concentration was maintained above 0.3 ng/ml [4, 16]: at least 15 days; Time post-dose at which plasma concentration reached the peak value ([4]; injection group, intramuscular 3 mg/kg (Example 18 sample)): 3 h |
|  |  |  | 0 | −0.11 | 0 | 0.12 | 0.11 | −0.04 | −0.21 | 0.2 | 0.3 | 0.08 | −0.01 |  |  | Fingolimod embonate [listing 1 of 2 here] | relatively stable in other conditions than the illumination condition where the impurities were slightly increased |  |
| 0.2 µg/mL | 36.18 | 1.75 |  |  |  |  |  |  |  |  |  |  |  | 21.26 | 5.8 | Fingolimod embonate [listing 2 of 2 here] |  |  |
